Laboratory results reported in patent US12492373B2, “Production method for nerve tissue” (Racthera Co., Ltd., priority 2014, dated 2025).

Legend:
[1] = system: human iPS cells (1231A3 strain); assay: Bright field observation of feeder-free cultured human iPS cells after preconditioning; type: cell-based
Experimental: As a specific example of preconditioning in step 1 of the production method of the present invention, the following operation was performed. First, the subconfluent human iPS cells (1231A3 strain) were washed with PBS, and dispersed into single cells by using TrypLE Select (manufactured by Life Technologies). Thereafter, the above human iPS cells dispersed into single cells were seeded in a plastic culture dish (manufactured by Iwaki) coated with Laminin 511-E8, […] (ROCK inhibiting substance, 10 μM). When a 6-well plate (manufactured by Iwaki, culture area 9.4 cm^2) was used as the above plastic culture dish, the number of plated cells for the above human iPS cells dispersed into single cells was set to 6×10^3. When a 60 mm dish (manufactured by Iwaki, culture area 21 cm^2) was used as the above plastic culture dish, the number of plated cells for the above human iPS cells dispersed into single cells was set to 13×10^3. One day after seeding, the medium was changed to StemFit medium free of Y27632. Thereafter, once in 1-2 days, the medium was changed to StemFit medium free of Y27632. Thereafter, the cells were cultured until 5 days after seeding, namely, one day before subconfluence (50% of culture area is covered with cells). Even when cultured for 6 days after seeding, similar results are shown. The human iPS cells one day before subconfluence in the above feeder-free culturing were subjected to feeder-free culturing in the presence of SB431542 (TGFβR inhibitor (TGFβRi), 5 μM) (step 1: preconditioning treatment, FIG. 1 “Precondition TGFβRi 24 hr”), or in the absence thereof (step 1: without precondition treatment, FIG. 1 “Control”) for 1 day. The bright field observation of cultured cells was performed under an inverted microscope (KEYENCE). […] As a preconditioning operation, subconfluent human iPS cells (1231A3 strain) were first washed with PBS, and dispersed into single cells by using TrypLE Select (manufactured by Life Technologies). […]

[2] = system: human iPS cells (1231A3 strain); assay: Form of cell aggregate in suspension culturing, bright field observation (good / medium / bad form); type: cell-based; conditions: step 1 for 1 day: SB431542 5 μM or LDN193189 100 nM; day 9
[3] = 1 day in Essential 8 medium, SB431542 5 μM, LDN193189 100 nM, or both

Row | SMILES | morphology of human iPS cell [1, 3] | shape of cell aggregate in step 3 compared with untreated group [2] | morphology of human iPS cell ([1]; SB431542 5 μM for 1 day during feeder-free culturing in StemFit medium)
1 | c1ccc2c(-c3cnn4cc(-c5ccc(N6CCNCC6)cc5)cnc34)ccnc2c1 [LDN193189, 4-[6-(4-piperazin-1-ylphenyl)pyrazolo[1,5-a]pyrimidin-3-yl]quinoline] | not largely influenced | good shape of a cell aggregate | 
2 | NC(=O)c1ccc(-c2nc(-c3ccc4c(c3)OCO4)c(-c3ccccn3)[nH]2)cc1 [SB431542, 4-(5-benzol[1,3]dioxol-5-yl-4-pyridin-2-yl-1H-imidazol-2-yl)-benzamide] | not largely influenced | good shape of cell aggregate | not largely influenced
